# Results: patent US10357493B2, “Metalloenzyme inhibitor compounds” (Selenity Therapeutics (Bermuda), Ltd., priority 2017, dated 2019)
# Legend:
# [1] = target: HDAC6 (Homo sapiens (Human), UniProt Q9UBN7); assay: HDAC6 enzymatic assay; assay type: biochemical; settings: read-out: Human HDAC6 IC50
# Procedure, shortened: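 Following a 17 hour room-temperature incubation of 2 ng HDAC6 with 10 uM substrate and compound, 50 μl developer was added for another 20 minutes, and fluorescence (excitation 360 nm, emission 460 nm) was recorded. Activity was normalized to no-compound (100%) and no-enzyme (0%) wells, and IC50 came from sigmoidal dose-response fitting in Graphpad Prism.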
# [2] = target: HDAC1 (Homo sapiens (Human), UniProt Q13547); assay: HDAC1 enzymatic assay; assay type: biochemical; settings: read-out: Human HDAC1 IC50
# Chain of HDAC1 (Q13547 whole entry): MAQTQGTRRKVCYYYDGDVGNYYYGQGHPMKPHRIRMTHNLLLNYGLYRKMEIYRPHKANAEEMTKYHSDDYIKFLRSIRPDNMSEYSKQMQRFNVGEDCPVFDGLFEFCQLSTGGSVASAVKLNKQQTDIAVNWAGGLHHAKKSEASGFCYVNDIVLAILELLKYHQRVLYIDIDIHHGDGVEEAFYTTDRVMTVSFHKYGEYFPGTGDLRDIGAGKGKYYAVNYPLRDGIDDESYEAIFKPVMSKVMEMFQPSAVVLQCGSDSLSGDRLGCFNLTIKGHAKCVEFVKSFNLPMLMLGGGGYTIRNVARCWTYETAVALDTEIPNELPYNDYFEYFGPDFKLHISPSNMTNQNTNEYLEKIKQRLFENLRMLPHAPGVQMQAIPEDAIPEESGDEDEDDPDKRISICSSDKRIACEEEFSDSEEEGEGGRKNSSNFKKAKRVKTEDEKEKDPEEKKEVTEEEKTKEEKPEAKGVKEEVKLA
# Procedure, shortened: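 Compound inhibition of human HDAC1 (0.5 ng enzyme, 10 uM substrate) was assessed by fluorescence after developer treatment, excitation 360 nm and emission 460 nm. Percent activity was normalized to no-compound (100%) and no-enzyme (0%) controls, plotted against concentration, and fitted to a sigmoidal dose-response curve in Graphpad Prism to obtain IC50 at half-maximal activity.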
# Chain of HDAC6 (Q9UBN7 whole entry): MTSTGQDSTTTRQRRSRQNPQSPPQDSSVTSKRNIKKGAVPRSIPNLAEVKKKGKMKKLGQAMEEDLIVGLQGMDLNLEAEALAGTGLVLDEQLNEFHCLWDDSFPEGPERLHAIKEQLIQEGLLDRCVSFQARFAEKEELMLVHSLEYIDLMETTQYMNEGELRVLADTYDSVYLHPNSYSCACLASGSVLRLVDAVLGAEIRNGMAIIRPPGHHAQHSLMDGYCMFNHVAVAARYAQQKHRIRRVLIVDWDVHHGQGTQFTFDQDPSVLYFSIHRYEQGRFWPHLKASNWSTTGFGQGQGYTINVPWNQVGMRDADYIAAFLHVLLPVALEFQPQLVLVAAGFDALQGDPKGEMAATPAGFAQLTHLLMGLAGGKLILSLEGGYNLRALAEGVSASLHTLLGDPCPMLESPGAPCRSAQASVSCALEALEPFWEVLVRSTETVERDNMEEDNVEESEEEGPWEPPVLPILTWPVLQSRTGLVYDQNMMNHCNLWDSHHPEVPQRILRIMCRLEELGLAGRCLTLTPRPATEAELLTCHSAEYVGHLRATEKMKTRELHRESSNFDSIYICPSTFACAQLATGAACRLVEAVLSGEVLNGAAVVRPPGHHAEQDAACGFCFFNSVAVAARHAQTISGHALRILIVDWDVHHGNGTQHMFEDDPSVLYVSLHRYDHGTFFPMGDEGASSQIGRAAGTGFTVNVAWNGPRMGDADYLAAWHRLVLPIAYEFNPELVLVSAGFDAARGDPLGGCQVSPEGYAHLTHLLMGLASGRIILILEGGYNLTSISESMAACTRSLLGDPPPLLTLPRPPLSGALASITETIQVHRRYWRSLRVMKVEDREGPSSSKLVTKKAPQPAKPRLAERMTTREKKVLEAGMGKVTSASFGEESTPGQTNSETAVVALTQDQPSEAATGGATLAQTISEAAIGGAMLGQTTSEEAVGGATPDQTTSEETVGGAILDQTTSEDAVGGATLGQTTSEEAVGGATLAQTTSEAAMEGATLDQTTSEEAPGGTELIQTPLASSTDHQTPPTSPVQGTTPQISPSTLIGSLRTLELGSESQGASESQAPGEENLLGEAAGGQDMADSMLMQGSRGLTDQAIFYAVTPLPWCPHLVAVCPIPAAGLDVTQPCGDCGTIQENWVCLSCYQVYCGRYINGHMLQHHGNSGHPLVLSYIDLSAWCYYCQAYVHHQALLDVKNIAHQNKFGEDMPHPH
IC50 [1],IC50 [2],SMILES
130 nM,> 30000 nM,"CS(=O)(=O)Nc1cccc(C(Nc2ncc(-c3nnc(C(F)F)o3)cn2)c2ccc(F)cc2)c1 (stereo not shown) [Example 128, N-(3-(((5-(5-(difluoromethyl)-1,3,4-oxadiazol-2-yl)pyrimidin-2-yl)amino)(4-fluorophenyl)methyl)phenyl)methanesulfonamide]"
250 nM,> 30000 nM,"CS(=O)(=O)Nc1ccc(C(Nc2ncc(-c3nnc(C(F)F)o3)cn2)c2ccc(F)cc2)cc1 (stereo not shown) [Example 129, N-(4-(((5-(5-(difluoromethyl)-1,3,4-oxadiazol-2-yl)pyrimidin-2-yl)amino)(4-fluorophenyl)methyl)phenyl)methanesulfonamide]"
190 nM,> 30000 nM,"CS(=O)(=O)Nc1ccccc1C(Nc1ncc(-c2nnc(C(F)F)o2)cn1)c1ccc(F)cc1 (stereo not shown) [Example 130, N-(2-(((5-(5-(difluoromethyl)-1,3,4-oxadiazol-2-yl)pyrimidin-2-yl)amino)(4-fluorophenyl)methyl)phenyl)methanesulfonamide]"
58 nM,> 30000 nM,"CS(=O)(=O)Nc1ccccc1CC(Nc1ncc(-c2nnc(C(F)F)o2)cn1)c1ccc(F)cc1 (stereo not shown) [Example 131, N-(2-(2-((5-(5-(difluoromethyl)-1,3,4-oxadiazol-2-yl)pyrimidin-2-yl)amino)-2-(4-fluorophenyl)ethyl)phenyl)methanesulfonamide]"
83 nM,> 30000 nM,"CS(=O)(=O)Nc1cccc(CC(Nc2ncc(-c3nnc(C(F)F)o3)cn2)c2ccc(F)cc2)c1 (stereo not shown) [Example 132, N-(3-(2-((5-(5-(difluoromethyl)-1,3,4-oxadiazol-2-yl)pyrimidin-2-yl)amino)-2-(4-fluorophenyl)ethyl)phenyl)methanesulfonamide]"

# The next lines start with the compound.
SMILES,IC50 [1],IC50 [2]
"CCCS(=O)(=O)NCC(Nc1ncc(-c2nnc(C(F)F)o2)cn1)c1ccc(F)cc1 (stereo not shown) [Example 111, N-(2-((5-(5-(difluoromethyl)-1,3,4-oxadiazol-2-yl)pyrimidin-2-yl)amino)-2-(4-fluorophenyl)ethyl)propane-1-sulfonamide]",32 nM,> 30000 nM
"CC(C)CS(=O)(=O)NCC(Nc1ncc(-c2nnc(C(F)F)o2)cn1)c1ccc(F)cc1 (stereo not shown) [Example 112, N-(2-((5-(5-(difluoromethyl)-1,3,4-oxadiazol-2-yl)pyrimidin-2-yl)amino)-2-(4-fluorophenyl)ethyl)-2-methylpropane-1-sulfonamide]",32 nM,> 30000 nM
"CN(CC(Nc1ncc(-c2nnc(C(F)F)o2)cn1)c1ccc(F)cc1)S(C)(=O)=O (stereo not shown) [Example 113, N-(2-((5-(5-(difluoromethyl)-1,3,4-oxadiazol-2-yl)pyrimidin-2-yl)amino)-2-(4-fluorophenyl)ethyl)-N-methylmethanesulfonamide]",21 nM,> 30000 nM
"O=C(NCC(Nc1ncc(-c2nnc(C(F)F)o2)cn1)c1ccc(F)cc1)C(F)(F)F (stereo not shown) [Example 114, N-(2-((5-(5-(difluoromethyl)-1,3,4-oxadiazol-2-yl)pyrimidin-2-yl)amino)-2-(4-fluorophenyl)ethyl)-2,2,2-trifluoroacetamide]",50 nM,> 30000 nM
"CS(=O)(=O)N(CC(Nc1ncc(-c2nnc(C(F)F)o2)cn1)c1ccc(F)cc1)CC(F)(F)F (stereo not shown) [Example 118, N-(2-((5-(5-(difluoromethyl)-1,3,4-oxadiazol-2-yl)pyrimidin-2-yl)amino)-2-(4-fluorophenyl)ethyl)-N-(2,2,2-trifluoroethyl)methanesulfonamide]",72 nM,> 30000 nM
"CS(=O)(=O)NCCC(Nc1ncc(-c2nnc(C(F)F)o2)cn1)c1ccc(F)cc1 (stereo not shown) [Example 125, N-(3-((5-(5-(difluoromethyl)-1,3,4-oxadiazol-2-yl)pyrimidin-2-yl)amino)-3-(4-fluorophenyl)propyl)methanesulfonamide]",26 nM,> 30000 nM
